10 molecules from patent US9988420B2, “Cytotoxic peptides and conjugates thereof” (priority 2013, dated 2018) can be followed below.

SMILES strings stand for the structures. Where two headings read alike, the source gives them in different places. Starred links: 1 amine or outer side, 2 acyl side, 3 side chain; linkers in the order of their positions; H or OH if unused. Non-standard residues stand in square brackets, D forms with d. Residues, ends and D or L forms follow the SMILES beside them. *: point of attachment. Dolaproine = CO[C@@H]([C@@H]1CCCN1)[C@@H](C)C(=O)O; X1 = O=C([C@@H]1[C@H]2CC[C@H](C2)N1[*:1])[*:2]; X3 = NC(=O)CN1[C@@H]2CC[C@@H](C2)[C@H]1C(=O)*; Dil = CC[C@H](C)[C@H](NC)[C@@H](CC(=O)O)OC; X4 = N#CCN1[C@@H]2CC[C@@H](C2)[C@H]1C(=O)*; X2 = CN1[C@@H]2CC[C@@H](C2)[C@H]1C(=O)*; Phe(ol) = N[C@H](CO)Cc1ccccc1

Holding throughout (assay): In vitro cell killing assay of payloads (cell proliferation, Cell-Titer-Glo)
Assay type in all cases: cell-based

The subject of assay [1] is JimT1 cells. The settings on record: Homo sapiens, JIMT-1, 120 h, read-out: In vitro cell killing (IC50 (nM)) JimT1.
Assay [2] relates to H526 cells. The following applies: Homo sapiens, read-out: In vitro cell killing (IC50 (nM)) NCI-H526.
Assay [3] concerns HCC1954 cells. The following applies: Homo sapiens, read-out: In vitro cell killing (IC50 (nM)) HCC1954.
Assay [4] relates to NCI-N87 cells. The following applies: Homo sapiens, 120 h, Cell-Titer-Glo after five days. As for the experimental part: (§1) For evaluation of the cell killing potency of the cytotoxic peptides of Formula (I) in vitro, cell proliferation assays were performed in parallel with 8 cell lines: MDA-MB231 clone 16, clone 40, JimT1, HCC1954, H526, KU812, CMK11-5 cells and Jurkat cells. In addition, in vitro, cell proliferation assays were performed using 3 other cell lines: A375, SKBR3 and NCI-N87. All the cell lines are described in more detail in Example 106 and were also used to assess the in vitro potency of immunoconjugates of the invention. The cell proliferation assays were conducted with Cell-Titer-Glo™ (Promega) five days after cells were incubated with various concentrations of ADCs (Riss et al., (2004) Assay Drug Dev Technol. 2:51-62).

In assay [5] the test system is A375 cells. The following applies: Homo sapiens, A-375, 120 h, Cell-Titer-Glo after five days. As for the experimental part:
as §1

Assay [6] concerns SKBR3 cells. The settings on record: Homo sapiens, SK-BR-3, 120 h, Cell-Titer-Glo after five days. As for the experimental part: as §1
The mark [7] stands for this setting: JimT1 cells, Cell-Titer-Glo after five days, Table 2b.
Setting [8] is: 120 h, NCI-H526 cells, Cell-Titer-Glo after five days, Table 2b.
Setting [9] is: 120 h, HCC1954 cells, Cell-Titer-Glo after five days, Table 2b.

Usually IC50 stands for the concentration that gives 50% inhibition. Consider `CC[C@H](C)[C@@H]([C@@H](CC(=O)N1CCC[C@H]1[C@H](OC)[C@@H](C)C(=O)N[C@H](Cc1ccccc1)c1ncccn1)OC)N(C)C(=O)[C@@H](NC(=O)[C@@H]1[C@H]2CC[C@H](C2)N1C)C(C)C` [Compound 70, (1R,3S,4S)-N-((S)-1-(((3R,4S,5S)-3-methoxy-1-((S)-2-((1R,2R)-1-methoxy-2-methyl-3-oxo-3-(((R)-2-phenyl-1-(pyrimidin-2-yl)ethyl)amino)propyl)pyrrolidin-1-yl)-5-methyl-1-oxoheptan-4-yl)(methyl)amino)-3-methyl-1-oxobutan-2-yl)-2-methyl-2-azabicyclo[2.2.1]heptane-3-carboxamide], for which the IC50 is 2.36 nM in assay [1] (setting [7]); 4.73 nM in assay [2] (setting [8]); 1.38 nM in assay [3] (setting [9]); 3.81 nM in assay [4]; 2.16 nM in assay [5].
In the case of `CC[C@H](C)[C@@H]([C@@H](CC(=O)N1CCC[C@H]1[C@H](OC)[C@@H](C)C(=O)N[C@H](COC)Cc1cccc(N)c1)OC)N(C)C(=O)[C@@H](NC(=O)[C@@H]1[C@H]2CC[C@H](C2)N1C)C(C)C` [Compound 72, (1R,3S,4S)-N-((S)-1-(((3R,4S,5S)-1-((S)-2-((1R,2R)-3-(((S)-1-(3-Aminophenyl)-3-methoxypropan-2-yl)amino)-1-methoxy-2-methyl-3-oxopropyl)pyrrolidin-1-yl)-3-methoxy-5-methyl-1-oxoheptan-4-yl)(methyl)amino)-3-methyl-1-oxobutan-2-yl)-2-methyl-2-azabicyclo[2.2.1]heptane-3-carboxamide], the IC50 in assay [1] (setting [7]) stood at 0.224 nM; in assay [2] (setting [8]) it was 0.287 nM; in assay [3] (setting [9]) it was 0.079 nM; in assay [5] it was 0.189 nM; in assay [6], 0.085 nM.
`CC[C@H](C)[C@@H]([C@@H](CC(=O)N1CCC[C@H]1[C@H](OC)[C@@H](C)C(=O)N[C@H](CO)Cc1ccccc1)OC)N(C)C(=O)[C@@H](NC(=O)[C@@H]1[C@H]2CC[C@H](C2)N1CC(N)=O)C(C)C` [Compound 64, (1R,3S,4S)-2-(2-Amino-2-oxoethyl)-N-((S)-1-(((3R,4S,5S)-1-((S)-2-((1R,2R)-3-(((S)-1-hydroxy-3-phenylpropan-2-yl)amino)-1-methoxy-2-methyl-3-oxopropyl)pyrrolidin-1-yl)-3-methoxy-5-methyl-1-oxoheptan-4-yl)(methyl)amino)-3-methyl-1-oxobutan-2-yl)-2-azabicyclo[2.2.1]heptane-3-carboxamide] (X3-V[Dil][Dolaproine][Phe(ol)]): the IC50 in assay [1] (setting [7]) came out at 4.15 nM; in assay [2] (setting [8]) it was 5.74 nM; in assay [3] (setting [9]), 1.09 nM; in assay [4], 1.21 nM; in assay [5], 25.6 nM.
The corresponding values for `CC[C@H](C)[C@@H]([C@@H](CC(=O)N1CCC[C@H]1[C@H](OC)[C@@H](C)C(=O)N[C@@H](Cc1ccccc1)c1ncccn1)OC)N(C)C(=O)[C@@H](NC(=O)[C@@H]1[C@H]2CC[C@H](C2)N1C)C(C)C` [Compound 69, (1R,3S,4S)-N-((S)-1-(((3R,4S,5S)-3-Methoxy-1-((S)-2-((1R,2R)-1-methoxy-2-methyl-3-oxo-3-(((S)-2-phenyl-1-(pyrimidin-2-yl)ethyl)amino)propyl)pyrrolidin-1-yl)-5-methyl-1-oxoheptan-4-yl)(methyl)amino)-3-methyl-1-oxobutan-2-yl)-2-methyl-2-azabicyclo[2.2.1]heptane-3-carboxamide] are 0.091 nM, 0.189 nM, 0.065 nM, 0.142 nM and 0.092 nM.
Regarding `CC[C@H](C)[C@@H]([C@@H](CC(=O)N1CCC[C@H]1[C@H](OC)[C@@H](C)C(=O)N[C@H](COC)Cc1ccccc1)OC)N(C)C(=O)[C@@H](NC(=O)[C@@H]1[C@H]2CC[C@H](C2)N1C)C(C)C` [Compound 67, (1R,3S,4S)-N-((S)-1-(((3R,4S,5S)-3-Methoxy-1-((S)-2-((1R,2R)-1-methoxy-3-(((S)-1-methoxy-3-phenylpropan-2-yl)amino)-2-methyl-3-oxopropyl)pyrrolidin-1-yl)-5-methyl-1-oxoheptan-4-yl)(methyl)amino)-3-methyl-1-oxobutan-2-yl)-2-methyl-2-azabicyclo[2.2.1]heptane-3-carboxamide], the IC50 in assay [1] amounted to 0.369 nM; in assay [2] (NCI-H526, 120 h), 0.614 nM; in assay [3] (HCC1954, 120 h), 0.239 nM; in assay [5] it was 0.244 nM.
With `CC[C@H](C)[C@@H]([C@@H](CC(=O)N1CCC[C@H]1[C@H](OC)[C@@H](C)C(=O)N[C@@H](Cc1ccccc1)c1cc[nH]n1)OC)N(C)C(=O)[C@@H](NC(=O)[C@@H]1[C@H]2CC[C@H](C2)N1C)C(C)C` [Compound 68, (1R,3S,4S)-N-((S)-1-(((3R,4S,5S)-3-Methoxy-1-((S)-2-((1R,2R)-1-methoxy-2-methyl-3-oxo-3-(((S)-2-phenyl-1-(1H-pyrazol-3-yl)ethyl)amino)propyl)pyrrolidin-1-yl)-5-methyl-1-oxoheptan-4-yl)(methyl)amino)-3-methyl-1-oxobutan-2-yl)-2-methyl-2-azabicyclo[2.2.1]heptane-3-carboxamide], the half-inhibitory concentration (IC50) in assay [1] (setting [7]) was 0.251 nM; in assay [2] (setting [8]), 0.428 nM; in assay [3] (setting [9]) it was 0.127 nM; in assay [4], 0.2 nM; in assay [5] it was 0.596 nM.
The corresponding values for `CC[C@H](C)[C@@H]([C@@H](CC(=O)N1CCC[C@H]1[C@H](OC)[C@@H](C)C(=O)N[C@@H](Cc1ccccc1)c1nnc(-c2ccccc2)o1)OC)N(C)C(=O)[C@@H](NC(=O)[C@@H]1[C@H]2CC[C@H](C2)N1C)C(C)C` [Compound 71, (1R,3S,4S)-N-((S)-1-(((3R,4S,5S)-3-methoxy-1-((S)-2-((1R,2R)-1-Methoxy-2-methyl-3-oxo-3-(((S)-2-phenyl-1-(5-phenyl-1,3,4-oxadiazol-2-yl)ethyl)amino)propyl)pyrrolidin-1-yl)-5-methyl-1-oxoheptan-4-yl)(methyl)amino)-3-methyl-1-oxobutan-2-yl)-2-methyl-2-azabicyclo[2.2.1]heptane-3-carboxamide] are 0.124 nM, 0.352 nM, 0.075 nM, 0.091 nM and 0.119 nM.
Taken in the same sequence, the figures for `CC[C@H](C)[C@@H]([C@@H](CC(=O)N1CCC[C@H]1[C@H](OC)[C@@H](C)C(=O)N[C@@H](Cc1ccccc1)C(=O)O)OC)N(C)C(=O)[C@@H](NC(=O)[C@@H]1[C@H]2CC[C@H](C2)N1C)C(C)C` [Compound 54, (S)-2-((2R,3R)-3-((S)-1-((3R,4S,5S)-4-((S)-N,3-Dimethyl-2-((1R,3S,4S)-2-methyl-2-azabicyclo[2.2.1]heptane-3-carboxamido)butanamido)-3-methoxy-5-methylheptanoyl)pyrrolidin-2-yl)-3-methoxy-2-methylpropanamido)-3-phenylpropanoic acid] (X2-V[Dil][Dolaproine]F-OH) were 17.1 nM, 54.8 nM, 7.18 nM, 7.59 nM and 27.4 nM.
Taken in the same sequence, the figures for `CC[C@H](C)[C@@H]([C@@H](CC(=O)N1CCC[C@H]1[C@H](OC)[C@@H](C)C(=O)N[C@H](CO)Cc1ccccc1)OC)N(C)C(=O)[C@@H](NC(=O)[C@@H]1[C@H]2CC[C@H](C2)N1C(C)=O)C(C)C` [Compound 65, (1R,3S,4S)-2-Acetyl-N-((S)-1-(((3R,4S,5S)-1-((S)-2-((1R,2R)-3-(((S)-1-hydroxy-3-phenylpropan-2-yl)amino)-1-methoxy-2-methyl-3-oxopropyl)pyrrolidin-1-yl)-3-methoxy-5-methyl-1-oxoheptan-4-yl)(methyl)amino)-3-methyl-1-oxobutan-2-yl)-2-azabicyclo[2.2.1]heptane-3-carboxamide] (Ac-[X1]V[Dil][Dolaproine][Phe(ol)]) were 6.88 nM, 3.82 nM, 0.93 nM, 3.67 nM and 31.3 nM.
Take `CC[C@H](C)[C@@H]([C@@H](CC(=O)N1CCC[C@H]1[C@H](OC)[C@@H](C)C(=O)N[C@H](CO)Cc1ccccc1)OC)N(C)C(=O)[C@@H](NC(=O)[C@@H]1[C@H]2CC[C@H](C2)N1CC#N)C(C)C` [Compound 63, (1R,3S,4S)-2-(Cyanomethyl)-N-((S)-1-(((3R,4S,5S)-1-((S)-2-((1R,2R)-3-(((S)-1-hydroxy-3-phenylpropan-2-yl)amino)-1-methoxy-2-methyl-3-oxopropyl)pyrrolidin-1-yl)-3-methoxy-5-methyl-1-oxoheptan-4-yl)(methyl)amino)-3-methyl-1-oxobutan-2-yl)-2-azabicyclo[2.2.1]heptane-3-carboxamide] (X4-V[Dil][Dolaproine][Phe(ol)]): the IC50 was determined as 5.08 nM in assay [1] (setting [7]); 6.49 nM in assay [2] (setting [8]); 1.64 nM in assay [3] (setting [9]); 2.09 nM in assay [4]; 14.3 nM in assay [5].
